Experiments:
BRD2/3/4 [1] = experiment: Pulldown-MS chemoproteomics in HEK293T cell lysate, (+)-JQ1 probe; assay type: binding, human; conditions: filter 1 quantified peptide in 3 replicates; against competitor or enantiomer controls
Description: (§1) The same procedure as the “Streptavidin pull-down” was followed up to the wash steps. After the final wash, the supernatant was completely removed. Formamide elution buffer (95% v/v formamide, 5% v/v 100 mM sodium acetate, pH 10, 50 μL) was then added to the beads with gentle mixing. The beads were heated to 95° C. for 10 min, pelleted, and the supernatant was removed while hot and then allowed to cool to rt. The formamide elution was repeated a second time for a combined eluate volume of approximately 100 μL. The eluate samples were then submitted to the Dana-Farber TPD Core facility for further processing. […]
(§2) Peptides were analyzed on an Ultimate™ 3000 RSLCnano system coupled to a Tribrid series mass spectrometer (Thermo Fisher Scientific™). […]
(§3) RAW file processing, false discovery rate filtering (<1%), and protein roll-up and MS1 intensity-based label-free quantification (Minora algorithm) were achieved using Proteome Discoverer 2.5 (Thermo Fisher Scientific™). […] Peptides were quantified by precursor ion abundance and summed across proteins.
(§4) Proteins were filtered to include those with three or more unique peptides quantified across four replicate treatments, unless otherwise stated. […] All peptides of target proteins quantified at the single peptide level were manually inspected to ensure accuracy in quantification.

BRD2/3/4 [2] = molecular target: T1, BRD2/3/4 (Homo sapiens, UniProt O60885); experiment: as above; assay type: binding; conditions: filter 3 quantified peptides in 3 replicates
T1 construct: In Vitro BARS Labeling of Endogenous Target Proteins in Cell Lysate; endogenous in cells; host or cells: HEK293T lysate
Description: as §1, §2, §3, §4

BRD4 = molecular target: T2, BRD4 (Homo sapiens, UniProt O60885); experiment: In cellulo BARS labeling in live HEK293T cells, immunoblot against BRD4; assay type: cell-based; conditions: probe 5 μM, B2(OH)4 100 μM 10 min
T2 construct: In Cellulo BARS Labeling of Endogenous Target Proteins; endogenous in cells; host or cells: HEK293T
Description: HEK293T cells were cultured in DMEM containing 10% FBS (Sigma), 100 units/mL penicillin, and 0.1 mg/mL streptomycin (Sigma) in a humidified chamber at 37° C. under an ambient atmosphere with 5% CO2. After culturing to >80% confluency in 150 mm plates, the plates were removed from the incubator, the media was aspirated, and the cells were trypsinized at 37° C. with 0.25% trypsin, 0.1% EDTA in HBSS (3 mL). After 3 min, complete growth medium (7 mL) was added to the detached cells, and the cell suspension was transferred to a 50 mL centrifuge tube. Cells were pelleted (400×g, 4 min, 23° C.) and washed with 2×20 mL PBS, pH 7.4. At this point, the density of the cell suspension in PBS was determined by the trypan blue exclusion method. The cells were pelleted once more, and the volume of PBS was adjusted to produce a cell suspension with a final density of 2×10^7 cells/mL. The cell suspension was aliquoted into 2 mL microcentrifuge tubes (3×1 mL, 2×10^7 cells each). […] Competitor 21′ (50 μM final concentration, from a 500 mM stock in DMSO) was also added to the third tube. The samples were incubated at 37° C. with end-over-end rotation. After 2 h of incubation, the cells were pelleted (400×g, 4 min, 23° C.) and washed once with PBS, pH 7.4.

Q: Which chemoproteomics hits (BRD2/3/4 [1]) does the source give for C#CCCC[N+](C)([O-])/C(Br)=C/C(Cl)CCCC(=O)NCCCCCCNC(=O)C[C@@H]1N=C(c2ccc(Cl)cc2)c2c(sc(C)c2C)-n2c(C)nnc21 (stereo partly drawn) [22′a, (Z)-1-Bromo-3-chloro-7-((6-(2-((S)-4-(4-chlorophenyl)-2,3,9-trimethyl-6H-thieno[3,2-f][1,2,4]triazolo[4,3-al][1,4]diazepin-6-yl)acetamido)hexyl)amino)-N-methyl-7-oxo-N-(pent-4-yn-1-yl)hept-1-en-1-amine oxide] here?
A: BRD2/3/4 were identified as hits

Q: And the chemoproteomics protein identified (BRD2/3/4 [2])?
A: BRD4 was identified

Q: What about the “target identification in live HEK293T cells (BRD4)” value (BRD4) of the same compound?
A: successfully executed

From patent publication US20260176274A1, “ENAMINE N-OXIDE TOOLS FOR TARGET IDENTIFICATION APPLICATIONS” (DANA-FARBER CANCER INSTITUTE, INC., priority 2022, published 2026)
